From US7306938B2, “High throughput screen for inhibitors of fatty acid biosynthesis in bacteria” (priority 1999, dated 2007) come the findings set out here.

In experiment [1] the test system is B. subtilis reporter strains PY79(amy::PyhfB::lacZ, cat) and PY79(amy::PylpC::lacZ, cat). As to the kind of experiment: Minimum inhibitory concentration (MIC) determination in 96-well microtiter plate, OD600 read. The experiment is classed as cell-based. Particulars: Bacillus subtilis, 18 h, read-out: minimum inhibitory concentration (MIC). The method, then: The minimum inhibitory concentrations (MIC) for cerulenin and triclosan were determined for each of the reporter strains. To determine the MIC, a compound of interest (e.g., cerulenin or triclosan) was placed in a 96-well microtiter plate such that the concentration of the compound varies in various wells of the plate (e.g., by using a series of 2-fold dilutions of the compound). Approximately 5,000 cells from a logarithmically-growing culture (e.g., the B. subtilis strain PY79) in Luria broth were added to each well (e.g., in a volume of 50-80 μl). The plate then was incubated at 37° C. for approximately 18 hours. The OD600 was then read to measure cell growth in each well of the plate. The lowest concentration of the compound that leads to complete killing of the culture (i.e., the concentration of compound for which the OD600 nm is equal to a control well that contains only media and the test compound) is deemed the MIC for the particular compound and bacterial strain. The MICs for cerulenin and triclosan were 12.5 μg/ml and 5 μg/ml, respectively, for both of the reporter strains. Such inhibitors can be used as lead compounds, which can subsequently be derivatized using standard medicinal chemistry techniques to produce antibacterial agents.

Experiment [2] deals with PylpC promoter. Briefly: lacZ reporter assay of promoter induction, strain PY79(amy::PylpC::lacZ, cat). The experiment is classed as cell-based, B. subtilis. Particulars: various concentrations, 96-well microplate, 3 hours (FIG. 8). An excerpt:
(§1) Clones containing the PyhfB, PyjaXY, and PylpC promoters have been described in GenBank, and the accession numbers for these clones are set forth in Table 2.
(§2) The reporter strains used in these assays were constructed as follows. PCR products containing the promoters were digested with EcoRI and BamHI, and cloned into the multiple cloning site of pDG268, which also had been digested with EcoRI and BamHI. The plasmid pDG268 is a derivative of pGD364 (See, Cutting and Van der Horn, Molecular Biological Methods for Bacillus, eds. C. R. Harwood and S. M. Cutting, 1990, John Wiley and Sons, NY, N.Y., pp. 52-54). […]
(§3) The reporter strains were incubated, separately, with triclosan or cerulenin at various concentrations, as shown on the X-axes depicted in FIGS. 7 and 8. Each strain and an antibacterial agent were incubated in a 96-well microplate for 3 hours. β-galactosidase activity was detected using the Tropix Galacton Star™ chemiluminescent substrate (3-chloro-5-(4-methoxyspiro{1,2-dioxetane-3,2′-(4′chloro)-tricyclo-[3.3.1.1^3,7]decan}-4-yl)phenyl-B-D-galactopyranoside) and the detection method described below. The fold induction of promoter activity was calculated as the level of activity in the samples containing the antibacterial agent divided by the level of activity in the samples that lacked the agent. […]
In general terms: A reporter such as luciferase makes a cellular process visible.

For experiment [3], the system named is PyhfB, PyjaXY, PylpC, and PyydK promoters. Briefly: RNA (transcriptional) profiling of bacterial cells treated with FAB pathway inhibitors. The experiment is classed as cell-based, B. subtilis. Particulars: cerulenin 0.5 or 5 μg/ml, triclosan 0.1 or 1 μg/ml; LB medium, 37° C., 10, 30, or 60 minutes. From the text:
Genetic Constructs: Conventional transcriptional profiling methods can be used to identify promoters that have increased activity in the presence of antibacterial agents such as cerulenin and triclosan, which are inhibitors of FAB.

Experiment [4] concerns PyhfB promoter. As to the kind of experiment: lacZ reporter assay of promoter induction, strain PY79(amy::PyhfB::lacZ, cat). The experiment is classed as cell-based, B. subtilis. The settings on record: various concentrations, 96-well microplate, 3 hours (FIG. 7).
Description: as §1, §2, §3

Values after ≈ are worked out from the molar mass of the structure shown.

Consider `C/C=C/C/C=C/CCC(=O)[C@H]1O[C@H]1C(N)=O` [cerulenin, 2,3-Epoxy-4-oxo-7,1-dodecadienamide], for which the MIC in experiment [1] is 12.5 µg/mL (≈ 56 µM). In addition, the “activity of the PylpC promoter (lacZ reporter, β-galactosidase chemiluminescence)” value in experiment [2] is listed as “increase the activity”. Also, in experiment [3], the “activity of the PyhfB, PyjaXY, PylpC, and PyydK promoters (RNA profiling)” value is “increase in activity”. In experiment [4], the “activity of the PyhfB promoter (lacZ reporter, β-galactosidase chemiluminescence)” value is on record as “increase the activity”.
For `Oc1cc(Cl)ccc1Oc1ccc(Cl)cc1Cl` [triclosan], the MIC in experiment [1] amounted to 5 µg/mL (≈ 17.3 µM). In addition, the “activity of the PylpC promoter (lacZ reporter, β-galactosidase chemiluminescence)” value in experiment [2] is listed as “increase the activity”. Further, in experiment [3], the “activity of the PyhfB, PyjaXY, PylpC, and PyydK promoters (RNA profiling)” value is given as “increase in activity”. Further, in experiment [4], the “activity of the PyhfB promoter (lacZ reporter, β-galactosidase chemiluminescence)” value was “increase the activity”.
